According to patent publication US20180037923A1, “SELECTIVE DETECTION OF LACTIC ACID AND/OR ACETIC ACID BACTERIA OR OF FUNGI” (priority 2015, published 2018):
Several values for one entry are separate records, joined by “and”; a condition that tells them apart may be missing. Equal entries are not always repeated.

Experiments:
[1] = system: lactic acid bacteria and acetic acid bacteria; test: Bactericidal action on the bacterial flora (conclusion from agar plate counts); format: cell-based; conditions: bactericide = reduction by at least three decimal logarithms of CFU/ml
Source text: (§1) The word “bactericide” refers to a treatment having the effect of reducing a bacterial population by at least three decimal logarithms of colony forming units/ml on an agar plate count of a sample after treatment.
(§2) The toxicity results on yeasts and on bacteria are presented in the table below displaying the duration of exposure of the fungal flora to molecule A1 and the associated fluorescence measurement: yeasts lysis after exposure to the antifungal was confirmed by microscopic examination and methylene blue staining.
(§3) The toxicity results on yeasts and on bacteria are presented in the table below displaying the duration of exposure of the fungal flora to the molecule A2 and are obtained by enumeration on MRS agar media.

[2] = system: Saccharomyces diastaticus; test: Atp bioluminescence, simplified protocol, with plate count; conditions: Treated (4 h)
[3] = system: Sacch. Cerevisae DSM 70449; test: Agar plate count after contact with antifungal; format: cell-based, Saccharomyces cerevisae; conditions: 400 mg/L; count at contact time 0 h 8.10^4 CFU/mL
Source text: as §1, §2
(§4) The words “contact time” refer to below, the time of exposure of the microorganisms to the fungicidal product, here molecule A1.
(§5) Below: “No CFU” is the abbreviation for “No Colony forming unit on agar plate count”.
as §3

[4] = system: Sacch. Cerevisae Saflager S23; test: Agar plate count after contact with antifungal; format: cell-based, Saccharomyces cerevisae; conditions: 400 mg/L; count at contact time 0 h 9.10^4 CFU/mL
Source text: as §1, §2, §4, §5, §3

[5] = system: Sacch. Diastaticus IFBM; test: Agar plate count after contact with antifungal; format: cell-based, Saccharomyces diastaticus; conditions: 400 mg/L; count at contact time 0 h 2.10^5 CFU/mL
Source text: as §1, §2, §4, §5, §3

[6] = system: Saccharomyces cerevisae DSM; test: Atpmetry check, initial protocol (Filtravette), with plate count; format: cell-based; conditions: Antifungal 4 h contact time
Procedure: (§6) For the molecule A1, an Atpmetry check of the fungal flora destruction and of the antifungal treatment harmlesness on the lactic acid or acetic acid bacterial flora has been done for a contact time of 4 hours or 8 hours and on different strains.
(§7) Strains tested: Oenococcus oeni DSM, Gluconobacter oxydans, B. bruxellensis, S. cerevisae, prepared in MRS broth.
(§8) Materials: Lum-1 ATP meter (model analogous to Profile-1 bioluminometer from New Horizons Diagnostics) was tested with Biothema Ab bioluminescence reagents, namely reagents “ATP Eliminating Buffer”, “Extractant B/S”, “ATP Reagent HS” and 0.45 μm porosity Filtravette™ cuvette-filters from New Horizons Diagnostics.
(§9) Addition of 500 μL of the suspension without fungicidal treatment or with fungicidal treatment inside a 10 mL plastic syringe containing at its end a cell concentrator incorporating a Filtravette™.
(§10) Filtration through the Filtravette™
(§11) Filtravette™ deposit on a Filtravette™ holder with a blotter pad below
(§12) Addition of 50 μL of “ATP Eliminating Buffer” inside the Filtravette
(§13) 10 minutes incubation at room temperature
(§14) Flushing of the “ATP Eliminating Buffer” Reagent through the blotter pad by positive pressure
(§15) Homogenization and 1 minute incubation.
(§16) Addition of 240 μL of “ATP Reagent HS”. Homogenization.
(§17) Insertion of the Filtravette into the Lum-1 drawer and closure of the drawer.

[7] = system: Gluconobacter oxydans; test: as above; format: cell-based
Procedure: as §6, §7, §8, §9, §10, §11, §12, §13, §14, §15, §16, §17

[8] = system: Oenococcus oeni DSM; test: as above; format: cell-based; conditions: 4 h contact time; without antifungal 0.9.10^7 CFU/500 μL
Procedure: as §6, §7, §8, §9, §10, §11, §12, §13, §14, §15, §16, §17

[9] = system: Brettanomyces bruxellensis; test: as above; format: cell-based; conditions: 4 h contact time; without antifungal 2.8.10^6 CFU/500 μL
Procedure: as §6, §7, §8, §9, §10, §11, §12, §13, §14, §15, §16, §17

[10] = system: Lactobacillus parabuchneri DSM 5708; test: Agar plate count after contact with antifungal; format: cell-based; conditions: count at contact time 0 h 1.4.10^6 CFU/mL
Source text: as §1, §2, §4, §5, §3

[11] = system: Lactobacillus brevis IFBM; test: Agar plate count after contact with antifungal; format: cell-based; conditions: count at contact time 0 h 7.10^5 CFU/mL
Source text: as §1, §2, §4, §5, §3

[12] = system: Oenococcus oeni DSM 20252; test: Agar plate count after contact with antifungal; format: cell-based
Source text: as §1, §2, §4, §5, §3

[13] = system: Dekkera anomala IFBM; test: Agar plate count after contact with antifungal; format: cell-based; conditions: 400 mg/L; count at contact time 0 h 1.10^5 CFU/mL
Source text: as §1, §2, §4, §5, §3

[14] = system: Lactobacillus paracasei IFBM; test: Agar plate count after contact with antifungal; format: cell-based; conditions: count at contact time 0 h 1.4.10^7 CFU/mL
Source text: as §1, §2, §4, §5, §3

[15] = system: Acetobacter aceti DSM 3508; test: Agar plate count after contact with antifungal; format: cell-based; conditions: count at contact time 0 h 2.9.10^7 CFU/mL
Source text: as §1, §2, §4, §5, §3

[16] = system: Zyggosaccharomyces bailii; test: Agar plate count after contact with antifungal; format: cell-based; conditions: 400 mg/L; count at contact time 0 h 3.10^5 CFU/mL
Source text: as §1, §2, §4, §5, §3

[17] = system: yeasts; test: Microscopic examination and methylene blue staining of yeasts after antifungal; format: cell-based
Source text: as §2

[18] = system: G. oxydans DSM 7145; test: Agar plate count after contact with antifungal; format: cell-based, Gluconobacter oxydans
Source text: as §1, §2, §4, §5, §3

[19] = system: Brettanomyces bruxellensis; test: Atp bioluminescence, simplified protocol, with plate count; format: cell-based; conditions: Treated 8 h antifungal contact time
Procedure: Use of […] transparent Greiner Bio One sterile flat bottom disposable cuvettes with Biothema AB bioluminescence reagents • 1. […] Addition of 150 μL of “ATP Reagent HS”, Homogenization. • 4.

C[C@@H]1[C@H](O)[C@@H](C)/C=C/C=C/C=C/C=C/C=C/C=C/C=C/[C@H](O[C@@H]2O[C@H](C)[C@@H](O)[C@H](N)[C@@H]2O)C[C@@H]2O[C@](O)(C[C@@H](O)C[C@@H](O)[C@H](O)CC[C@@H](O)C[C@@H](O)CC(=O)O[C@H]1C)C[C@H](O)[C@H]2C(=O)O [Molecule A1, Amphotericin B]
Bactericidal action on lactic acid and acetic acid flora ([1]; doses of 200 mg/liter): non-bactericidal for lactic acid bacteria and acetic acid bacteria | Bactericidal action on lactic acid and acetic acid flora ([1]; doses of 400 mg/liter): non-bactericidal | total bioluminescence in duplicate with lysis agent ([2]; start 7.5.10^1 CFU/100 μL, untreated + extractant 1934 and 1241 RLU): 482 RLU | luminescent backgroud noise in duplicate without lysis agent after luciferin/luciferase addition ([2]; start 7.5.10^1 CFU/100 μL, untreated background 34 and 34 RLU): 457 RLU and 436 RLU | total bioluminescence in duplicate with lysis agent ([2]; start 7.5.10^2 CFU/100 μL, untreated + extractant 16239 and 16707 RLU): 4393 RLU | luminescent backgroud noise in duplicate without lysis agent after luciferin/luciferase addition ([2]; start 7.5.10^2 CFU/100 μL, untreated background 211 and 223 RLU): 3803 RLU and 3837 RLU | Concentration after treatment ([2]; untreated 7.5.10^1 CFU/100 μL): 0 CFU/100 μL | Concentration after treatment ([2]; untreated 7.5.10^2 CFU/100 μL): 0 CFU/100 μL | Agar plate count contact time 4 h [3]: No CFU | Agar plate count contact time 4 h [4]: No CFU | Agar plate count contact time 4 h [5]: No CFU | Agar plate count with antifungal ([6]; start 5.10^2 CFU/500 μL): time no count on agar | Atp bioluminescence with antifungal treatment ([6]; start 5.10^2 CFU/500 μL, untreated 206949 and 149508 RLU): 642 RLU | Agar plate count with antifungal ([6]; start 5.10^3 CFU/500 μL): time no count on agar | Atp bioluminescence with antifungal treatment ([6]; start 5.10^3 CFU/500 μL, untreated >1000000 RLU): 4665 RLU | Atp bioluminescence with antifungal treatment ([7]; MRS broth, 500 μL analysed, 1.10^7 CFU/500 μL before treatment, 115966 RLU): 77057 RLU | Plate count with antifungal ([7]; before treatment 1.10^7 CFU/500 μL): 4.1.10^6 CFU/500 μL | Plate count with antifungal [8]: 4.10^6 CFU/500 μL | Plate count with antifungal [9]: 0 CFU/500 μL | Agar plate count contact time 4 h ([10]; 200 mg/L): 1.10^6 CFU/mL | Agar plate count contact time 4 h ([10]; 400 mg/L): 3.10^5 CFU/mL | Agar plate count contact time 4 h ([11]; 200 mg/L): 2.9.10^5 CFU/mL | Agar plate count contact time 4 h ([11]; 400 mg/L): 3.10^5 CFU/mL | Agar plate count contact time 4 h ([12]; 200 mg/L, count at contact time 0 h 4.10^9 CFU/mL): 6.10^9 CFU/mL | Agar plate count contact time 4 h ([12]; 400 mg/L, count at contact time 0 h 4.10^7 CFU/mL): 5.10^7 CFU/mL | Agar plate count contact time 4 h [13]: No CFU | Agar plate count contact time 4 h ([14]; 200 mg/L): 2.4.10^7 CFU/mL | Agar plate count contact time 4 h ([14]; 400 mg/L): 1.10^7 CFU/mL | Agar plate count contact time 4 h ([15]; 200 mg/L): 8.10^8 CFU/mL | Agar plate count contact time 4 h ([15]; 400 mg/L): 3.10^7 CFU/mL | Agar plate count contact time 4 h [16]: No CFU | yeasts lysis after exposure to the antifungal [17]: confirmed | Agar plate count contact time 4 h ([18]; 200 mg/L, count at contact time 0 h 8.10^8 CFU/mL): 1.10^9 CFU/mL | Agar plate count contact time 4 h ([18]; 400 mg/L, count at contact time 0 h 8.10^7 CFU/mL): 9.10^7 CFU/mL | total bioluminescence with lysis agent ([19]; start 2.7.10^2 CFU/100 μL, untreated with lysis agent 26990 and 31661, background 862 and 718 RLU): 933 RLU and 553 RLU | total bioluminescence with lysis agent ([19]; start 2.7.10^3 CFU/100 μL, untreated with lysis agent 242958 and 265513, background 5346 and 5390 RLU): 4441 RLU and 4433 RLU | Concentration after treatment ([19]; untreated 2.7.10^2 CFU/100 μL): 0 CFU/100 μL | Concentration after treatment ([19]; untreated 2.7.10^3 CFU/100 μL): 0 CFU/100 μL
